This is an account of results in PMC10709440, “High-throughput ligand profile characterization in novel cell lines expressing seven heterologous insect olfactory receptors for the detection of volatile plant biomarkers” (Scientific Reports, 2023).

One experiment has as its target T1, Drosophila OR71a (Drosophila melanogaster, UniProt Q9VUK5).
T1 construct: expressed in transfected cells
T1 sequence (Q9VUK5 1-378): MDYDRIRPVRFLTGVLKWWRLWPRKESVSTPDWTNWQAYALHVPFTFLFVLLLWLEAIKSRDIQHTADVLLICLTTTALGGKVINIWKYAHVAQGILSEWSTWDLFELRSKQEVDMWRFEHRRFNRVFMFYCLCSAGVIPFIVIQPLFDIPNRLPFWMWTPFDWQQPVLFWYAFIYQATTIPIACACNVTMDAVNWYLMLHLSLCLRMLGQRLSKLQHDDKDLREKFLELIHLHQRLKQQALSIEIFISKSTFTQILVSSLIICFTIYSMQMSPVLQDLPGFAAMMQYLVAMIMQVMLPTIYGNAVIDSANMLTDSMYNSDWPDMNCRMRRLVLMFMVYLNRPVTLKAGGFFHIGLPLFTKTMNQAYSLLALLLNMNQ
T1 sequence (Q9VNB5 1-486 partner): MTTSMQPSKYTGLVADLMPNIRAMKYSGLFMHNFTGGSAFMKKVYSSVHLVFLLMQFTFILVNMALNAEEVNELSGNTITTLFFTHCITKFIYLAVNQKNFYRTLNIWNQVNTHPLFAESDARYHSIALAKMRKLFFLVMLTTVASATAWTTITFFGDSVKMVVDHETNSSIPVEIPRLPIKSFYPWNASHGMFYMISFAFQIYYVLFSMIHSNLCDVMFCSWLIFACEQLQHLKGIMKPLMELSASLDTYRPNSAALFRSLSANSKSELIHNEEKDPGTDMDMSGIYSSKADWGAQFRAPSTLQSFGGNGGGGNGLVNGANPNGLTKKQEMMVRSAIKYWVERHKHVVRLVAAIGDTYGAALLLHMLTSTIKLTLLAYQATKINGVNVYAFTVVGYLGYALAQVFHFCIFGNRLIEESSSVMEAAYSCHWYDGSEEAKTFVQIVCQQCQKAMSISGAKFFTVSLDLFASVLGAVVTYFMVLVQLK
As to the kind of experiment: Calcium ion fluorescence (GCaMP6) assay, OR71a stable HEK293 cell line. The note with it: for activation at 1 µM / activation at 10 µM / activation at 100 µM: HEK293, read-out: OR71a response (VUAA1-normalized response); for Average response: OR71a cell line, VUAA1-normalized response, mean of biological replicates. In kind it is cell-based. A digest of the protocol: (§1)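 HEK293 lines stably expressing each Drosophila OR with GCaMP6, doxycycline-induced (1 μg/mL) 48 or 72 h. Fluorescence recorded 5 s baseline then 30 s after VOC injection at pH 7.3; ΔF=(FMAX−F0)/F0, normalized to 50 µM VUAA1 response per line, triplicate wells averaged; concentration series 0.01–100 μM.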

In a further experiment the target is T2, Drosophila OR98a (Drosophila melanogaster, UniProt Q9VAZ3).
T2 construct: expressed in transfected cells
T2 sequence (Q9VAZ3 1-397): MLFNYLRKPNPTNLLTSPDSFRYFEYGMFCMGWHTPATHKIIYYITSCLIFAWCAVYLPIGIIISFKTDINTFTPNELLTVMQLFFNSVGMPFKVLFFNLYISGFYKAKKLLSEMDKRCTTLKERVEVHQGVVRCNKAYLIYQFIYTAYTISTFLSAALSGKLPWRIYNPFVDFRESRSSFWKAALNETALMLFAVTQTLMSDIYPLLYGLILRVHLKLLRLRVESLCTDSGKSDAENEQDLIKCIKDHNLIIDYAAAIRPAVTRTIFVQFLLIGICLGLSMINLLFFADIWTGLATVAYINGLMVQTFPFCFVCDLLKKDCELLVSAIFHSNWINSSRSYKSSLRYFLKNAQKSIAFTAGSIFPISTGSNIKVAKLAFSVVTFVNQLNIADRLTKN
T2 sequence (Q9VNB5 1-486 partner): T1 sequence (Q9VNB5 1-486 partner)
As to the kind of experiment: Calcium ion fluorescence (GCaMP6) assay, OR98a stable HEK293 cell line. The format is cell-based. The note with it: for Average response: OR98a cell line, average of biological replicates, fraction of VUAA1 response. In outline:
as §1

Setting [1] is: concentration 1, normalized fluorescence change, values below 0.05 threshold given as 0.
Where [2] appears, read: concentration 10, normalized fluorescence change, values below 0.05 threshold given as 0.
The mark [3] stands for this setting: concentration 100, normalized fluorescence change, values below 0.05 threshold given as 0.
Setting [4] is: HEK293, read-out: Average response.
Where [5] appears, read: HEK293, read-out: OR98a Average response (VUAA1-normalized).
Setting [6] is: HEK293, read-out: OR98a response (VUAA1-normalized response).
The mark [7] stands for this setting: ligand concentration 1 (unit not given), threshold 0.05, below shown as 0.
The mark [8] stands for this setting: ligand concentration 10 (unit not given), threshold 0.05, below shown as 0.
Setting [9] is: ligand concentration 100 (unit not given), threshold 0.05, below shown as 0.

Where two headings read alike, the source gives them in different places.

Regarding `CCCCCC(C)=O` [2-heptanone], the activation at 1 µM at Drosophila OR71a stood at 8%; at Drosophila OR98a (setting [4]), 7%; on Drosophila OR98a (setting [5]), 7%; on Drosophila OR98a (setting [6]), 7%. In addition, the activation at 10 µM at Drosophila OR71a turned out to be 12%; at Drosophila OR98a (setting [4]), 1.68%; at Drosophila OR98a (setting [5]), 2%; on Drosophila OR98a (setting [6]), 0%. In addition, the activation at 100 µM at Drosophila OR71a is 5%; on Drosophila OR98a (setting [4]), 11%; at Drosophila OR98a (setting [5]), 11%; at Drosophila OR98a (setting [6]), 11%. Besides, the Average response at Drosophila OR71a (cc. 1 µM) is 0.08; on Drosophila OR71a (cc. 10 µM), 0.12; at Drosophila OR71a (cc. 100 µM) it was 0.05. Besides, the “DF norm AVERAGE OR71a” value on Drosophila OR71a (setting [1]) is 0.08012; at Drosophila OR71a (setting [2]), 0.1157; at Drosophila OR71a (setting [3]), 0.05175. The “DF norm AVERAGE OR98a” value at Drosophila OR98a (setting [1]) was found to be 0.06738; on Drosophila OR98a (setting [2]), 0; at Drosophila OR98a (setting [3]) it was 0.1149.
Turning to `C=CC(O)C/C=C\CC` (stereo not drawn) [(5Z)-octa-1,5-dien-3-ol], the activation at 1 µM on Drosophila OR71a, at Drosophila OR98a (setting [4]) and at Drosophila OR98a (setting [6]) was 0% throughout. The activation at 10 µM at Drosophila OR71a is 0%; at Drosophila OR98a (setting [4]), 8%; on Drosophila OR98a (setting [6]) it was 8%. In addition, the activation at 100 µM on Drosophila OR71a was found to be 0%; at Drosophila OR98a (setting [4]) it was 7%; on Drosophila OR98a (setting [6]), 7%. The figures for the Average response at Drosophila OR71a (cc. 1 µM), on Drosophila OR71a (cc. 10 µM) and at Drosophila OR71a (cc. 100 µM) were 0.00, 0.0228 and 0.00, respectively. Besides, the “DF norm AVERAGE OR71a” value at Drosophila OR71a (setting [1]), on Drosophila OR71a (setting [2]) and on Drosophila OR71a (setting [3]) was 0 throughout. Further, the entries for the “DF norm AVERAGE OR98a” value at Drosophila OR98a (setting [1]), on Drosophila OR98a (setting [2]) and at Drosophila OR98a (setting [3]) were 0, 0.08127 and 0.07281, respectively.
On to `CCCCCCCO` [1-heptanol], for which the activation at 1 µM worked out at 0% at Drosophila OR71a, 4% at Drosophila OR98a (setting [4]) and 0% on Drosophila OR98a (setting [6]). The activation at 10 µM on Drosophila OR71a was 0%; at Drosophila OR98a (setting [4]), 5%; at Drosophila OR98a (setting [6]) it was 5%. The activation at 100 µM on Drosophila OR71a, on Drosophila OR98a (setting [4]) and on Drosophila OR98a (setting [6]) was 0% in each case. In addition, the Average response at Drosophila OR71a (cc. 1 µM), at Drosophila OR71a (cc. 10 µM) and on Drosophila OR71a (cc. 100 µM) was 0.00 each time. For the same compound, the “DF norm AVERAGE OR71a” value at Drosophila OR71a (setting [1]), on Drosophila OR71a (setting [2]) and at Drosophila OR71a (setting [3]) was 0 in each case. Also, the “DF norm AVERAGE OR98a” value turned out to be 0 at Drosophila OR98a (setting [1]), 0.05219 on Drosophila OR98a (setting [2]) and 0 on Drosophila OR98a (setting [3]).
Take `Cc1cccc(O)c1` [3-methylphenol]: the activation at 1 µM came out at 0% at Drosophila OR71a, 4.63% on Drosophila OR98a (setting [4]) and 0% on Drosophila OR98a (setting [6]). Further, the results for the activation at 10 µM on Drosophila OR71a, on Drosophila OR98a (setting [4]) and at Drosophila OR98a (setting [6]) were 0%, 4.61% and 0%, respectively. In addition, the figures for the activation at 100 µM on Drosophila OR71a, at Drosophila OR98a (setting [4]) and on Drosophila OR98a (setting [6]) were 0%, 6% and 6%, respectively. For the same compound, the Average response at Drosophila OR71a (cc. 1 µM) worked out at 0.03; at Drosophila OR71a (cc. 10 µM), 0.0152; at Drosophila OR71a (cc. 100 µM) it was 0.0133. Further, the “DF norm AVERAGE OR71a” value on Drosophila OR71a (setting [1]), on Drosophila OR71a (setting [2]) and on Drosophila OR71a (setting [3]) was 0 in each case. Moreover, the “DF norm AVERAGE OR98a” value on Drosophila OR98a (setting [1]) turned out to be 0; at Drosophila OR98a (setting [2]), 0; at Drosophila OR98a (setting [3]), 0.05828.
Take `CCCCCC(O)CC` (stereo not drawn) [3-octanol]: the activation at 1 µM on Drosophila OR71a was determined as 0%; at Drosophila OR98a (setting [4]), 1.89%; at Drosophila OR98a (setting [5]) it was 2%; at Drosophila OR98a (setting [6]) it was 0%. Besides, the activation at 10 µM on Drosophila OR71a turned out to be 0%; at Drosophila OR98a (setting [4]) it was 3.68%; at Drosophila OR98a (setting [5]), 4%; at Drosophila OR98a (setting [6]), 0%. Moreover, the activation at 100 µM at Drosophila OR71a came to 0%; on Drosophila OR98a (setting [4]) it was 13%; on Drosophila OR98a (setting [5]), 13%; on Drosophila OR98a (setting [6]), 13%. Further, the Average response on Drosophila OR71a (cc. 1 µM) is listed as 0.0215; on Drosophila OR71a (cc. 10 µM), 0.00; on Drosophila OR71a (cc. 100 µM), 0.00. For the same compound, the “DF norm AVERAGE OR71a” value at Drosophila OR71a (setting [1]), at Drosophila OR71a (setting [2]) and on Drosophila OR71a (setting [3]) was 0 each time. For the same compound, the “DF norm AVERAGE OR98a” value is 0 on Drosophila OR98a (setting [1]), 0 on Drosophila OR98a (setting [2]) and 0.1274 on Drosophila OR98a (setting [3]).
Regarding `CC1=CCC2CC1C2(C)C` (stereo not drawn) [alpha-pinene], the activation at 1 µM on Drosophila OR71a, at Drosophila OR98a (setting [4]) and on Drosophila OR98a (setting [6]) was 0% each time. Also, the activation at 10 µM on Drosophila OR71a, at Drosophila OR98a (setting [4]) and on Drosophila OR98a (setting [6]) was 0% throughout. Besides, the activation at 100 µM at Drosophila OR71a, on Drosophila OR98a (setting [4]) and at Drosophila OR98a (setting [6]) was 0% each time. Moreover, the Average response is 0.0368 on Drosophila OR71a (cc. 1 µM), 0.00 on Drosophila OR71a (cc. 10 µM) and 0.00 on Drosophila OR71a (cc. 100 µM). Also, the “DF norm AVERAGE OR71a” value at Drosophila OR71a (setting [7]), at Drosophila OR71a (setting [8]) and at Drosophila OR71a (setting [9]) was 0 in each case. The “DF norm AVERAGE OR98a” value on Drosophila OR98a (setting [7]), on Drosophila OR98a (setting [8]) and on Drosophila OR98a (setting [9]) was 0 in each case.
Take (+)-beta-cedrene: the Average response at Drosophila OR71a (cc. 1 µM) was found to be 0.0243; at Drosophila OR71a (cc. 10 µM), 0.03; on Drosophila OR71a (cc. 100 µM), 0.00; on Drosophila OR98a (cc. 1 µM) it was 0.0855; at Drosophila OR98a (cc. 10 µM), 0.06; on Drosophila OR98a (cc. 100 µM), 0.06. The “OR71a response (VUAA1-normalized response)” value on Drosophila OR71a (VOC concentration 1 μM), on Drosophila OR71a (VOC concentration 10 μM) and on Drosophila OR71a (VOC concentration 100 μM) was 0.00 in each case. Further, the “DF norm AVERAGE OR71a” value at Drosophila OR71a (setting [1]), on Drosophila OR71a (setting [2]) and on Drosophila OR71a (setting [3]) was 0 each time. Moreover, the “OR98a response (VUAA1-normalized response)” value at Drosophila OR98a (VOC concentration 1 μM) is 0.0855; on Drosophila OR98a (VOC concentration 10 μM), 0.06; at Drosophila OR98a (VOC concentration 100 μM), 0.06. Besides, the “DF norm AVERAGE OR98a” value at Drosophila OR98a (setting [1]) was 0.08554; at Drosophila OR98a (setting [2]), 0.05985; on Drosophila OR98a (setting [3]), 0.06078.
